From patent US9320724B2, “Method of improving cognition and increasing dendritic complexity in humans with down syndrome and compositions therefor” (priority 2013, dated 2016)

Assays:
[1] = system: Ts65Dn mice; settings: cited from earlier work
[2] = system: Ts65Dn mice; settings: cited from earlier work; for contextual learning: earlier study
[3] = system: Ts65Dn and 2N mice; test: Cardiovascular and respiratory system monitoring (MouseOx vital signs monitor); settings: nadolol 5 mg/kg IP, 1 h later formoterol 2 mg/kg IP or saline, tested 4 h later
Experimental: (§1) Pharmacological Treatments. […] For details on methods of drug injections see FIG. 16.
Cardiovascular and respiratory system monitoring. Peripheral effects of fomoterol were assessed using MOUSEOX® Small Animal Vital Signs Monitor (Starr). The monitor was attached to a collar clip with an LED sensor to enable recordings in free-moving mice. To minimize stress before recording, the collar clip was attached to each animal. After five minutes, heart rate, respiratory rate, and oxygen saturation were recorded using MOUSEOX® 6.3.13 for 10 minutes.
(§2) FIG. 16. Strategy used for performing IP injections of βAR agonist and antagonist and behavioral testing. […] Four hours later, the mice were tested for cardiovascular and respiratory system effects, open field activity, or fear conditioning. The process started with open field-testing on day 1 followed by fear conditioning on days 4 (training) and 5 (testing).

[4] = system: Ts65Dn and 2N mice; test: Fear conditioning (contextual learning); format: in vivo, mouse; settings: context test one day after training, nadolol 5 mg/kg IP then formoterol 2 mg/kg IP or saline
Experimental: as §1
b) Fear Conditioning. […] The fear conditioning tests were done using four FreezeScan chambers (Clever Sys) on days 4 and 5 after the start of the open field-testing. […] Four hours later, the mice were placed in the fear-conditioning chamber and their baseline activity was recorded for three minutes. At the end of this period, each mouse was exposed to five shocks (2 seconds each, 0.5 mA) with inter-trial intervals of 80 seconds. Twenty-four hours later, the mice were injected again, similar to the Training Day, and returned to the same fear-conditioning chamber for five minutes and their activity was recorded. Freezing was defined as a lack of movement for 3 frames (29 frames/s).
as §2

[5] = oral administration in rodents; cited from earlier work
[6] = in vivo; cited from earlier work
[7] = system: Fgf2; settings: rats; IP injections; cited from earlier work
[8] = system: Ts65Dn and 2N mice; test: Open field activity; format: in vivo, mouse; settings: nadolol 5 mg/kg IP then formoterol 2 mg/kg IP or saline; for total distance travelled: in 10 minutes
Experimental: as §1
a) Open Field Activity. Prior to testing, the mice were handled for five days for habituation. […] Four hours later, the mice were tested for open field activity. The open field arena (450 mm×450 mm) had visual cues on the walls. […] The arena was cleaned after each session. The velocity, total distance traveled, and the time spent in the peripheral 50% versus central 50% area of the arena (bouts) for each mouse were quantified and analyzed using TopScan Lite (Clever Sys).
as §2

[9] = system: synaptophysin; test: Synaptophysin immunostaining of the DG (synaptic density); format: in vivo, mouse; settings: daily IP nadolol alone or nadolol with formoterol until day 16
Experimental: (§3) At the end of this period, all mice were anesthetized, perfused, and the brain was extracted. The right hemisphere from each brain was fixed in 4% paraformaldehyde followed by dehydration. The methodology for staining has been published before. […] The left hemisphere was flash frozen and used for gene expression studies.
(§4) Before all staining(s), to inhibit endogenous peroxidase, 70-μm-thick floating sections were pre-incubated in 0.5% H2O2 in 50% methanol for 30 minutes at RT. This was followed by pre-incubating the sections in 0.1% triton and 10% normal serums(s) (NS, Vector Labs) for 1 hour at RT. This was followed by incubation in primary antibodies overnight at RT. […] For DCX staining the sections were kept in pre-warmed (37° C.) for 30 minutes before staining. This was followed by incubation in secondary anti-bodies that were diluted in 0.1% triton and corresponding 1% NS. The sections were then incubated in ABC Lite (1:1000, Vector) for 1 hour. Staining was terminated by incubating in DAB (0.66 mg/ml in tris-HCl) for 5-10 minutes. Finally, the sections were washed, dehydrated and mounted.
(§5) FIG. 16. Strategy used for performing IP injections of βAR agonist and antagonist and behavioral testing. […] Four hours later, the mice were tested for cardiovascular and respiratory system effects, open field activity, or fear conditioning. […]

[10] = system: c-Fos; test: c-Fos immunostaining of the DGC layer; format: in vivo, mouse; settings: daily IP nadolol alone or nadolol with formoterol until day 16
Experimental: as §3, §4, §5

[11] = system: BrdU-positive profiles; test: BrdU cell count in the DG (cell proliferation); format: in vivo, mouse; settings: 15 days of treatment, then BrdU 50 mg/kg IP daily for 5 days
Experimental: To identify proliferating cells, we used 5-bromo-2′-deoxyuridine (BrdU, Sigma). It was dissolved in PBS, filtered, and kept at 4° C. till use. After 15 days of treatment, each mouse was injected IP daily (50 mg/kg) with BrdU solution for 5 days. Thereafter, on day 21, all mice were anesthetized and transcardially perfused with ice-cold saline. The entire brain was immediately removed and the two hemispheres were separated. The left hemisphere was fixed overnight, cut, and stored. […] This was followed by incubation of sections in ABC.
Stereo-Investigator (MBF) was used to quantify the total number of BrdU-positive cells in the entire septo-temporal extent of DG. Following the outlining of the DG area at 4×, each positive profile was identified using a 100× oil objective. Unbiased stereological methods were used to determine the total number of BrdU-immunoreactive-profiles throughout the hippocampus. A Nanozoomer system (Hamamatsu 2.0 RS) was used to capture images of the entire slide in each case. High magnification images were captured using the Nanozoomer and stored.

[12] = system: DCX-positive neurons; test: DCX immunostaining: number and dendritic branching of newly born DGCs; format: in vivo, mouse; settings: nadolol alone or nadolol with formoterol
Experimental: as §3, §4

[13] = system: Fgf2; test: Fgf2 gene expression, real-time PCR in DG micro-punches; format: in vivo; settings: normalized to B-actin and Gapdh and to a 2N mouse

CNCCC(Oc1ccc(C(F)(F)F)cc1)c1ccccc1 (stereo not drawn) [fluoxetine]
neurogenesis [1]: promote neurogenesis

O=C(NCCNCC(O)COc1ccc(O)cc1)N1CCOCC1 (stereo not drawn) [xamoterol]
contextual learning [2]: restored contextual learning
spatial learning and hyperactivity ([2]; later studies): did not improve spatial learning and/or reduce hyperactivity

COc1ccc(CC(C)NCC(O)c2ccc(O)c(NC=O)c2)cc1 (stereo not drawn) [formoterol]
O2 saturation ([3]; 2N mice): 93.221±0.36%
heart rate ([3]; 2N mice): 638.440±44.77 pulse per minute
O2 saturation ([3]; Ts65Dn mice): 92.205±1.31%
heart rate ([3]; Ts65Dn mice): 672.620±36.58 pulse per minute
respiratory rate ([3]; Ts65Dn mice): 189.090±8.40 per minute
duration of freezing ([4]; Ts65Dn mice): 34.040±3.66 seconds per minute
time to reach the brain [5]: ≤ 30 min
crossing of the blood brain barrier [6]: cross the blood brain barrier (BBB) and reach the brain

N[C@H](C(=O)O)[C@H](O)c1ccc(O)c(O)c1 [L-DOPS, L-threo-3,4-dihdroxyphenylserine]
contextual learning [2]: restored contextual learning

CC(C)(C)NCC(O)c1cc(Cl)c(N)c(Cl)c1 (stereo not drawn) [clenbuterol]
Fgf2 mRNA levels in the hippocampus [7]: significant increase

CC(C)(C)NCC(O)COc1cccc2c1CC(O)C(O)C2 (stereo not drawn) [nadolol]
duration of freezing ([4]; 2N mice): 46.761±3.09 seconds per minute
duration of freezing ([4]; Ts65Dn mice): 19.28±4.79 seconds per minute
total distance travelled ([8]; 2N mice): 18.233±1.48 meters
number of bouts, central 50% area ([8]; 2N mice): 39.46±4.96
number of bouts, peripheral 50% area ([8]; 2N mice): 45.00±5.68
mean velocity in the open field arena ([8]; 2N mice, 4 h later): 31.465±2.74 mm/s
total distance travelled ([8]; Ts65Dn mice): 30.424±2.70 meters
number of bouts, central 50% area ([8]; Ts65Dn mice): 60.25±4.95
percentage of area covered by synaptophysin staining in the DG ([9]; 2N mice): 27.40±11.00%
percentage of area covered by synaptophysin staining in the DG ([9]; Ts65Dn mice): 21.50±1.00%
density of c-Fos-positive DGCs ([10]; 2N mice): 179.30±22.4 cells/mm^2
density of c-Fos-positive DGCs ([10]; Ts65Dn mice): 109.42±13.0 cells/mm^2
total number of BrdU-positive profiles in the DG ([11]; 2N mice): 3,161.390±900
total number of BrdU-positive profiles in the DG ([11]; Ts65Dn mice): 2,133.290±491
number of DCX-positive DGCs ([12]; 2N mice): 5391.36±744
order of dendritic branching of DCX-positive neurons ([12]; 2N mice): 2.05±0.12
number of DCX-positive DGCs ([12]; Ts65Dn mice): 2837.79±500
order of dendritic branching of DCX-positive neurons ([12]; Ts65Dn mice): 1.58±0.08
Fgf2 gene expression in DG micro-punches ([13]; 2N mice): 1.000±0.41
Fgf2 gene expression in DG micro-punches ([13]; Ts65Dn mice): 0.344±0.07
